What was measured:
Type in all cases: functional, Homo sapiens
Design in all cases: dose or concentration left out as unconfirmed
Colon cancer organoid [1] = assay: Optimized Dual-Glo assay to identify co-culture induced drug vulnerabilities using donated chemical probes and chemogenomics kinase set in O06 CRC organoid and F06 CAF mono and co-culture. […] Cell viability is reported both mono and co-culture models.
Colon cancer organoid [2] = assay: Optimized Dual-Glo assay to identify co-culture induced drug vulnerabilities using donated chemical probes and chemogenomics kinase set in O20 CRC organoid and F20 CAF mono and co-culture. […] Cell viability is reported both mono and co-culture models.
Colon cancer organoid [3] = assay: Optimized Dual-Glo assay to identify co-culture induced drug vulnerabilities using donated chemical probes and chemogenomics kinase set in O14 CRC organoid and F14 CAF mono and co-culture. […] Cell viability is reported both mono and co-culture models.
[4] = Culture type Co-Culture, Transduced with Lucferase2-P2A-EGFP lentivirus
[5] = Culture type Co-Culture, Transduced with Renilla-dsRed lentivirus
[6] = Culture type Mono-Culture, Transduced with Lucferase2-P2A-EGFP lentivirus
[7] = Culture type Mono-Culture, Transduced with Renilla-dsRed lentivirus

Structure (SMILES)	Cell Viability (Colon cancer organoid [1]; [4])	Cell Viability (Colon cancer organoid [1]; [5])	Cell Viability (Colon cancer organoid [1]; [6])	Cell Viability (Colon cancer organoid [1]; [7])	Cell Viability (Colon cancer organoid [2]; [4])	Cell Viability (Colon cancer organoid [2]; [5])	Cell Viability (Colon cancer organoid [2]; [6])	Cell Viability (Colon cancer organoid [2]; [7])	Cell Viability (Colon cancer organoid [3]; [4])	Cell Viability (Colon cancer organoid [3]; [5])	Cell Viability (Colon cancer organoid [3]; [6])	Cell Viability (Colon cancer organoid [3]; [7])
CC1=C(C#N)C(c2ccc3[nH]nc(C)c3c2)C(C#N)=C(C)N1 [BAY-474]	148.587%	192.268%	98.9453%	96.2381%	81.7867%	102.241%	98.8764%	79.7467%	198.7%	101.908%	71.8172%	85.997%
CC(=O)C1=C(C)N(c2cccc(C(F)(F)F)c2)C(=O)N[C@H]1c1ccc(C#N)nc1 [BAY-677]	113.366%	134.225%	107.227%	105.031%	134.265%	107.791%	113.459%	115.06%	86.1981%	131.912%	107.006%	91.8517%
CC(=O)C1=C(C)N(c2cccc(C(F)(F)F)c2)C(=O)N[C@@H]1c1ccc(C#N)nc1 [BAY-678]	128.432%	162.784%	110.704%	89.9312%	140.099%	133.591%	110.356%	85.3396%	126.5%	123.101%	84.3173%	104.156%
Cc1nc(C2CCN(C(=O)c3ccc(OC(F)(F)F)cc3N)CC2)c2ncc(N3CCN(C)CC3)cc2n1 [BAY-693]	114.208%	166.908%	75.386%	110.093%	93.857%	129.276%	111.777%	88.9169%	86.7565%	92.2226%	129.525%	92.5719%
O=C(O)[C@@H]1[C@@H](Cn2nnc3ccccc3c2=O)CC[C@H]1C(=O)c1ccc(OCCC2CCOCC2)cc1 [BAY-694]	117.739%	144.793%	97.4704%	83.1858%	92.0939%	91.7477%	167.035%	108.76%	106.85%	112.908%	118.458%	100.512%
O=C(NCc1ncc(C(F)(F)F)cc1Cl)c1ccc2c(c1)C1(CCS(=O)(=O)CC1)[C@@H](C1CC1)N2S(=O)(=O)c1ccc(F)cc1 [BAY-786]	112.409%	138.316%	97.377%	88.5192%	102.274%	106.984%	104.026%	100.592%	75.9207%	99.8085%	94.4221%	104.267%
Cc1c(NC(=O)c2cc(C(N)=O)nc3cc(F)ccc23)c(C(F)(F)F)nn1Cc1ccc(C#N)cc1 [BAY-876]	9.2808%	424.118%	4.84%	74.218%	13.842%	190.785%	15.2674%	77.5911%	22.1239%	120.557%	31.4127%	63.4994%
CN1CCN(c2cnc3c(C4CCN(C(=O)c5ccc(OC(F)(F)F)cc5N)CC4)ncnc3c2)CC1 [BAY-885]	128.922%	132.533%	82.0167%	90.7895%	78.3205%	141.163%	69.7079%	80.8249%	92.1967%	106.052%	52.9657%	104.304%
O=C(Nc1cnc(Oc2ccc(F)cc2)nc1)N1CCc2ncccc2[C@@H]1c1ccc(F)cc1 [BAY-899]	92.2798%	100.101%	137.923%	100.535%	151.718%	104.61%	76.6403%	85.9791%	76.8335%	114.239%	91.8718%	105.629%
CC1=C(C#N)C(c2ccc3c(c2)c(NC(=O)c2ccccc2C)nn3C)C(C#N)=C(C)N1 [BAY-974]	97.6295%	94.9804%	90.396%	95.4639%	105.235%	128.576%	108.1%	107.642%	102.224%	90.7163%	99.5288%	100.218%
C[C@H](c1ccnc(Nc2nc3ccc(-c4cc(N(C)C)ncn4)cc3[nH]2)c1)N1CCN(C(=O)CC(F)(F)F)CC1 [BAY-985]	134.436%	180.071%	90.5996%	96.3949%	129.711%	125.86%	106.931%	106.043%	122.433%	113.895%	111.789%	77.4572%
NS(=O)(=O)c1cc(NC(=O)Cc2ccccc2)ccc1Oc1cccc(Cl)c1 [BAY-1797]	120.23%	167.635%	96.4062%	112.706%	89.0927%	86.996%	102.238%	103.793%	108.747%	112.127%	131.361%	106.475%
CCc1ccccc1C(=O)Nc1n[nH]c2c(C)c(F)c(C3C(C#N)=C(C)N(C)C(C)=C3C#N)cc12 [BAY-3827]	80.578%	109.489%	83.7184%	82.828%	74.4041%	157.673%	58.8443%	110.691%	89.6646%	118.565%	81.9788%	77.2526%
Cn1cc(Cl)c2c(Oc3c(F)cc(Nc4cc(Cl)nc(N)n4)cc3F)ccnc21 [BAY-4900]	121.536%	149.241%	59.0633%	101.592%	91.184%	109.2%	84.5951%	91.9324%	109.877%	85.9396%	108.551%	92.3665%

Source: ChEMBL document CHEMBL5674860, “Optimized Dual-Glo Assay to identify co-culture-induced drug vulnerabilities in 3D CRC models” (2024)
